Laboratory results: ChEMBL document CHEMBL3774345, “Synthesis of new diarylamides with pyrimidinyl pyridine scaffold and evaluation of their anti-proliferative effect on cancer cell lines” (Bioorg Med Chem Lett, 2016)

Legend:
Format in all cases: functional
[1] = Cytotoxicity against human OVCAR3 cells assessed as cell growth at 10 uM after 24 hrs by SRB assay; conditions: OVCAR-3, 24 h, read-out: Activity
[2] = Cytotoxicity against human HOP92 cells assessed as cell growth at 10 uM after 24 hrs by SRB assay; conditions: HOP-92, 24 h, read-out: Activity
[3] = Cytotoxicity against human Caki1 cells assessed as cell growth at 10 uM after 24 hrs by SRB assay; conditions: CAKI-1, 24 h, read-out: Activity
[4] = Cytotoxicity against human IGROV1 cells assessed as cell growth at 10 uM after 24 hrs by SRB assay; conditions: IGROV-1, 24 h, read-out: Activity
786-0 = test: Cytotoxicity against human 786-0 cells assessed as cell growth at 10 uM after 24 hrs by SRB assay; conditions: 786-0, 24 h, read-out: Activity
[5] = Cytotoxicity against human NCI60 cells assessed as growth inhibition at 10 uM after 24 hrs by SRB assay; conditions: NCI60, 24 h
SK-MEL-5 = test: Cytotoxicity against human SK-MEL-5 cells assessed as cell growth at 10 uM after 24 hrs by SRB assay; conditions: SK-MEL-5, 24 h, read-out: Activity
[6] = Cytotoxicity against human SKOV3 cells assessed as cell growth at 10 uM after 24 hrs by SRB assay; conditions: SK-OV-3, 24 h, read-out: Activity
NCI-H522 = test: Cytotoxicity against human NCI-H522 cells assessed as cell growth at 10 uM after 24 hrs by SRB assay; conditions: NCI-H522, 24 h, read-out: Activity
MDA-MB-231 = test: Cytotoxicity against human MDA-MB-231 cells assessed as cell growth at 10 uM after 24 hrs by SRB assay; conditions: MDA-MB-231, 24 h, read-out: Activity
M14 = test: Cytotoxicity against human M14 cells assessed as cell growth at 10 uM after 24 hrs by SRB assay; conditions: M14, 24 h, read-out: Activity
A498 = test: Cytotoxicity against human A498 cells assessed as cell growth at 10 uM after 24 hrs by SRB assay; conditions: A498, 24 h, read-out: Activity
[7] = Cytotoxicity against human COLO205 cells assessed as cell growth at 10 uM after 24 hrs by SRB assay; conditions: COLO 205, 24 h, read-out: Activity
T47D = test: Cytotoxicity against human T47D cells assessed as cell growth at 10 uM after 24 hrs by SRB assay; conditions: read-out: Activity
SN12C = test: Cytotoxicity against human SN12C cells assessed as cell growth at 10 uM after 24 hrs by SRB assay; conditions: read-out: Activity
[8] = Cytotoxicity against human OVCAR4 cells assessed as cell growth at 10 uM after 24 hrs by SRB assay; conditions: OVCAR-4, 24 h, read-out: Activity
MDA-MB-468 = test: Cytotoxicity against human MDA-MB-468 cells assessed as cell growth at 10 uM after 24 hrs by SRB assay; conditions: MDA-MB-468, 24 h, read-out: Activity
[9] = Cytotoxicity against human LOXIMVI cells assessed as cell growth at 10 uM after 24 hrs by SRB assay; conditions: LOX IMVI, read-out: Activity
[10] = Cytotoxicity against human HCC2998 cells assessed as cell growth at 10 uM after 24 hrs by SRB assay; conditions: HCC 2998, 24 h, read-out: Activity
[11] = Cytotoxicity against human RPMI8226 cells assessed as cell growth at 10 uM after 24 hrs by SRB assay; conditions: RPMI-8226, 24 h, read-out: Activity
[12] = Cytotoxicity against human OVCAR8 cells assessed as cell growth at 10 uM after 24 hrs by SRB assay; conditions: OVCAR-8, 24 h, read-out: Activity
[13] = Cytotoxicity against human UACC62 cells assessed as cell growth at 10 uM after 24 hrs by SRB assay; conditions: UACC-62, 24 h, read-out: Activity
KM12 = test: Cytotoxicity against human KM12 cells assessed as cell growth at 10 uM after 24 hrs by SRB assay; conditions: KM12, 24 h, read-out: Activity
NCI-H322M = test: Cytotoxicity against human NCI-H322M cells assessed as cell growth at 10 uM after 24 hrs by SRB assay; conditions: read-out: Activity
[14] = Cytotoxicity against human SF268 cells assessed as cell growth at 10 uM after 24 hrs by SRB assay; conditions: SF-268, 24 h, read-out: Activity
MCF7 = test: Cytotoxicity against human MCF7 cells assessed as cell growth at 10 uM after 24 hrs by SRB assay; conditions: MCF7, 24 h, read-out: Activity
SR = test: Cytotoxicity against human SR cells assessed as cell growth at 10 uM after 24 hrs by SRB assay; conditions: read-out: Activity
[15] = Cytotoxicity against human SF539 cells assessed as cell growth at 10 uM after 24 hrs by SRB assay; conditions: SF-539, 24 h, read-out: Activity
[16] = Cytotoxicity against human NCI-ADR-RES cells assessed as cell growth at 10 uM after 24 hrs by SRB assay; conditions: read-out: Activity
[17] = Cytotoxicity against human UACC257 cells assessed as cell growth at 10 uM after 24 hrs by SRB assay; conditions: UACC-257, 24 h, read-out: Activity
[18] = Cytotoxicity against human SNB19 cells assessed as cell growth at 10 uM after 24 hrs by SRB assay; conditions: SNB-19, 24 h, read-out: Activity
HT-29 = test: Cytotoxicity against human HT-29 cells assessed as cell growth at 10 uM after 24 hrs by SRB assay; conditions: HT-29, 24 h, read-out: Activity
[19] = Cytotoxicity against human SF295 cells assessed as cell growth at 10 uM after 24 hrs by SRB assay; conditions: SF-295, 24 h, read-out: Activity
U-251 = test: Cytotoxicity against human U251 cells assessed as cell growth at 10 uM after 24 hrs by SRB assay; conditions: U-251, 24 h, read-out: Activity
[20] = Cytotoxicity against human HL-60(TB) cells assessed as cell growth at 10 uM after 24 hrs by SRB assay; conditions: HL-60, 24 h, read-out: Activity
[21] = Cytotoxicity against human HOP62 cells assessed as cell growth at 10 uM after 24 hrs by SRB assay; conditions: HOP-62, 24 h, read-out: Activity
CCRF-CEM = test: Cytotoxicity against human CCRF-CEM cells assessed as cell growth at 10 uM after 24 hrs by SRB assay; conditions: read-out: Activity
SK-MEL-28 = test: Cytotoxicity against human SK-MEL-28 cells assessed as cell growth at 10 uM after 24 hrs by SRB assay; conditions: SK-MEL-28, 24 h, read-out: Activity
[22] = Cytotoxicity against human DU145 cells assessed as cell growth at 10 uM after 24 hrs by SRB assay; conditions: DU-145, 24 h, read-out: Activity

| Compound | growth at 10 µM [1] | growth at 10 µM [2] | growth at 10 µM [3] | growth at 10 µM [4] | growth at 10 µM (786-0) | inhibition at 10 µM [5] | growth at 10 µM (SK-MEL-5) | growth at 10 µM [6] | growth at 10 µM (NCI-H522) | growth at 10 µM (MDA-MB-231) | growth at 10 µM (M14) | growth at 10 µM (A498) | growth at 10 µM [7] | growth at 10 µM (T47D) | growth at 10 µM (SN12C) | growth at 10 µM [8] | growth at 10 µM (MDA-MB-468) | growth at 10 µM [9] | growth at 10 µM [10] | growth at 10 µM [11] | other results |
| --- | --- | --- | --- | --- | --- | --- | --- | --- | --- | --- | --- | --- | --- | --- | --- | --- | --- | --- | --- | --- | --- |
| COCCCNc1nc(NC(=O)c2ccc(Cl)cc2C)cc(-c2cccnc2)n1 | 117% | 67% | 99.5% | 106% | 85.4% | 0.78% | 84.1% | 98.4% | 78.6% | 94% | 103% | 109% | 111% | 89.4% | 111% | 106% | 111% | 107% | 103% | 90.2% | growth at 10 µM [12]: 94.2%; growth at 10 µM [13]: 109%; growth at 10 µM (KM12): 104%; growth at 10 µM (NCI-H322M): 102%; growth at 10 µM [14]: 104%; growth at 10 µM (MCF7): 81.1%; growth at 10 µM (SR): 110%; growth at 10 µM [15]: 89.9%; growth at 10 µM [16]: 108%; growth at 10 µM [17]: 85.7%; growth at 10 µM [18]: 91.7%; growth at 10 µM (HT-29): 105%; growth at 10 µM [19]: 104%; growth at 10 µM (U-251): 112%; growth at 10 µM [20]: 106%; growth at 10 µM [21]: 99.3%; growth at 10 µM (CCRF-CEM): 96.5%; growth at 10 µM (SK-MEL-28): 104%; growth at 10 µM [22]: 103% |
| COc1cc(OC)cc(C(=O)Nc2cc(-c3cccnc3)nc(NCCCN3CCOCC3)n2)c1 | 105% | 67.7% | 101% | 97.4% | 84% | 8.88% | 68.3% | 93.9% | 92% | 79.6% | 104% | 83.3% | 94.3% | 72.8% | 86.4% | 117% | 83.2% | 88.1% | 123% | 79.1% | growth at 10 µM [12]: 91.8%; growth at 10 µM [13]: 97.6%; growth at 10 µM (KM12): 104%; growth at 10 µM (NCI-H322M): 90.9%; growth at 10 µM [14]: 94.1%; growth at 10 µM (MCF7): 88%; growth at 10 µM (SR): 57.9%; growth at 10 µM [15]: 91.1%; growth at 10 µM [16]: 95.4%; growth at 10 µM [17]: 88.6%; growth at 10 µM [18]: 98.7%; growth at 10 µM (HT-29): 85.2%; growth at 10 µM [19]: 101%; growth at 10 µM (U-251): 90.5%; growth at 10 µM [20]: 86.5%; growth at 10 µM [21]: 87.8%; growth at 10 µM (CCRF-CEM): 90.8%; growth at 10 µM (SK-MEL-28): 101%; growth at 10 µM [22]: 104% |
| COCCCNc1nc(NC(=O)c2cc(Br)cc(C(F)(F)F)c2)cc(-c2cccnc2)n1 | 109% | 57.9% | 81.4% | 91.3% | 85.8% | 11.3% | 70.6% | 92.2% | 83.5% | 75.8% | 96.5% | 76.2% | 96.4% | 65% | 89.1% | 92.3% | 82.8% | 104% | 114% | 65.6% | growth at 10 µM [12]: 87.5%; growth at 10 µM [13]: 90.5%; growth at 10 µM (KM12): 105%; growth at 10 µM (NCI-H322M): 99.9%; growth at 10 µM [14]: 90.5%; growth at 10 µM (MCF7): 83.8%; growth at 10 µM (SR): 83.4%; growth at 10 µM [15]: 94%; growth at 10 µM [16]: 99.5%; growth at 10 µM [17]: 91%; growth at 10 µM [18]: 95.9%; growth at 10 µM (HT-29): 83.7%; growth at 10 µM [19]: 89.2%; growth at 10 µM (U-251): 85.9%; growth at 10 µM [20]: 94.6%; growth at 10 µM [21]: 91.8%; growth at 10 µM (CCRF-CEM): 80.8%; growth at 10 µM (SK-MEL-28): 98.6%; growth at 10 µM [22]: 100% |
